Experimental findings from US20080050452A1, “METAL-CONTAINING FORMULATIONS AND METHODS OF USE” (priority 2006, published 2008) are described below.

The test system of the assay is Ser. marcescens. Description: Minimal bactericidal concentration (MBC) assay. The format is cell-based, Serratia marcescens. How it is done: Minimal bactericidal concentration (MBC) assay—Overnight-grown MIC plates, prepared as described in Example 16, were evaluated to determine the MIC. Culture was then sampled from wells at and near the MIC using sterile inoculating loops, and transferred to fresh MHA plates to determine if viable bacteria remained. […] The MBC was determined as the well in the MIC plate which contained the lowest concentration of silver yielding no bacterial growth on the MHA plate.

SMILES strings stand for the structures.

In the case of `O=[N+]([O-])[O-].[Ag+]` [AgNO3, silver nitrate], the MBC is, setting by setting: (Ser. marcescens isolate NP402 (first listing)) 6 parts silver per million; (Ser. marcescens isolate NP402 (second listing)) 6 parts silver per million; (Ser. marcescens isolate NP408 (first listing)) 6 parts silver per million; (Ser. marcescens isolate NP408 (second listing)) 11 parts silver per million.
